# Experimental data: patent publication US20090088457A1, “Primary Amines as Renin Inhibitors” (Actelion Pharmaceuticals, Ltd., priority 2006, published 2009)
# Molecular target: T1, recombinant human renin (Homo sapiens, UniProt P00797)
# T1 sequence (P00797 67-406): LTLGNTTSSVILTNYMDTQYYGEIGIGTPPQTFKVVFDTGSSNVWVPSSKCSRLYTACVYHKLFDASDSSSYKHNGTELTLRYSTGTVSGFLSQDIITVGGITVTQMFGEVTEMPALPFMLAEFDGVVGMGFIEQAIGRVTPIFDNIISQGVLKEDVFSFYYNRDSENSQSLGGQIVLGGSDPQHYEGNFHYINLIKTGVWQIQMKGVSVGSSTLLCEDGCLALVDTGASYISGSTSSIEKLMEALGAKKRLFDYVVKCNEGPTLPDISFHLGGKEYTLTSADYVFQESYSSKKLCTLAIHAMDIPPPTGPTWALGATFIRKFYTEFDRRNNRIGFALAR
# Experiment: Primary renin inhibition assay: IC50 in buffer, 384 well MTP (AngI quantified by EIA)
# Format: biochemical
# Details: human tetradecapeptide substrate, 37° C. for 3 h
# Method: 1. Enzyme Immuno Assay (EIA) to Estimate AngI Accumulation and Renin Inhibition
# 1.1 Preparation of AngI-BSA Conjugate
# 1.3 mg (1 μmol) of AngI [1-10 (Bachem, H-1680)] and 17 mg (0.26 μmol) of BSA (Fluka, 05475) were dissolved in 4 mL of 0.1M phosphate buffer, pH 7.4, after which 2 mL of a 1:100 dilution of glutaraldehyde in H2O (Sigma G-5882) was added dropwise. The mixture was incubated overnight at 4° C., then dialyzed against 2 liters of 0.9% NaCl, twice for 4 h at rt, followed by dialysis against 2 liters of PBS 1× overnight at rt. The solution was then filtered with a Syringe filter, 0.45 μm (Nalgene, Cat. No. 194-2545). The conjugate can be stored in polypropylene tubes in 0.05% sodium azide at 4° C. for at least 12 months.
# 1.2 Preparation of BSA-AngI Coated MTP
# Microtiter plates (MPT384, MaxiSorp™, Nunc) were incubated overnight at 4° C. with 80 μl of AngI (1-10)/BSA conjugate, diluted 1:100'000 in PBS 1× in a teflon beaker (exact dilution dependent on batch of conjugate), emptied, filled with 90 μl of blocking solution [0.5% BSA (Sigma A-2153) in PBS 1×, 0.02% NaN3], and incubated for at least 2 h at rt, or overnight at 4° C. 96 well MTP (MaxiSorp™, Nunc) were coated with 200 μl conjugate and blocked with 250 μl blocking solution as above, except that the blocking solution contained 3% BSA. The plates can be stored in blocking solution at 4° C. for 1 month.
# 1.3 AngI-EIA in 384 Well MTP
# The AngI (1-10)/BSA coated MTP were washed 3 times with wash buffer (PBS 1×, 0.01% Tween 20) and filled with 75 μl of primary antibody solution (anti-AngI antiserum, pre-diluted 1:10 in horse serum), diluted to a final concentration of 1:100'000 in assay buffer (PBS 1×, 1 mM EDTA, 0.1% BSA, pH 7.4). 5 μl of the renin reaction (or standards in assay buffer) (see below) were added to the primary antibody solution and the plates were incubated overnight at 4° C. After the incubation the plates were washed 3 times with wash buffer and incubated with secondary antibody [anti-rabbit IgG, linked to horseradish peroxidase (Amersham Bioscience, NA 934V), diluted 1:2'000 in wash buffer] for 2 h at rt. The plates were washed 3 times with wash buffer and then incubated for 1 h at rt with substrate solution [1.89 mM ABTS (2.2′-azino-di-(3-ethyl-benzthiazolinsulfonate)] (Roche Diagnostics, 102 946) and 2.36 mM H2O2 [30%, (Fluka, 95300] in substrate buffer (0.1M sodium acetate, 0.05M sodium dihydrogen phosphate, pH 4.2). The OD of the plate was read at 405 nm in a microplate reader (FLUOStar Optima from BMG). The production of AngI during the renin reaction was quantified by comparing the OD of the sample with the OD of a standard curve of AngI(1-10), measured in parallel.
# 2. Primary Renin Inhibition Assay: IC50 in Buffer, 384 Well MTP
# The renin assay was adapted from an assay described before (Fischli W. et al., Hypertension, 1991, 18:22-31) and consists of two steps: in the first step, recombinant human renin is incubated with its substrate (commercial human tetradecapeptide renin substrate) to create the product Angiotensin I (AngI). In the second step, the accumulated AngI is measured by an immunological assay (enzyme immuno assay, EIA). The detailed description of this assay is found below. The EIA is very sensitive and well suited for renin activity measurements in buffer or in plasma. Due to the low concentration of renin used in this assay (2 fmol per assay tube or 10 pM) it is possible to measure inhibitor affinities in this primary assay down to low pM concentration.
# Recombinant human renin (3 pg/μl) in assay buffer (PBS 1×, 1 mM EDTA, 0.1% BSA, pH 7.4), human tetradecapeptide (1-14) substrate (Bachem, M-1120) [5 μM in 10 mM HCl], hydroxyquinoline sulfate (Fluka, 55100) [30 mM in H2O] and assay buffer were premixed at 4° C. at a ratio of 100:30:10:145. 47.5 μl per well of this premix was transferred into polypropylene plates (MTP384, Nunc). […]
row,IC50 [nM],Compound
1,7.8,"Cc1cccc(CN(C(=O)C(CN)Cc2cnc(OCCOc3c(F)ccc(F)c3Cl)s2)C2CC2)c1C (racemic) [Example 2, (rac.)-3-Amino-2-{2-[2-(2-chloro-3,6-difluoro-phenoxy)-ethoxy]-thiazol-5-ylmethyl}-N-cyclopropyl-N-(2,3-dimethyl-benzyl)-propionamide]"
2,0.2,"COCCc1ccc(Cl)c(CN(C(=O)[C@@H](CN)Cc2ccc(OCCOc3c(Cl)cc(C)cc3Cl)nc2)C2CC2)c1 [Example 18, (R)-2-Aminomethyl-N-[2-chloro-5-(2-methoxy-ethyl)-benzyl]-N-cyclopropyl-3-{6-[2-(2,6-dichloro-4-methyl-phenoxy)-ethoxy]-pyridin-3-yl}-propionamide]"
3,0.5,"COCCc1ccc(Cl)c(CN(C(=O)[C@@H](CN)Cc2ccc(N3CC[C@@H](Oc4c(Cl)cc(C)cc4Cl)C3)nc2)C2CC2)c1 [Example 20, (R)-2-Aminomethyl-N-[2-chloro-5-(2-methoxy-ethyl)-benzyl]-N-cyclopropyl-3-{6-[(R)-3-(2,6-dichloro-4-methyl-phenoxy)-pyrrolidin-1-yl]-pyridin-3-yl}-propionamide]"
4,0.3,"COCCc1ccc(Cl)c(CN(C(=O)[C@@H](CN)Cc2ccc(N3CC[C@H](Oc4c(Cl)cc(C)cc4Cl)C3)nc2)C2CC2)c1 [Example 22, (R)-2-Aminomethyl-N-[2-chloro-5-(2-methoxy-ethyl)-benzyl]-N-cyclopropyl-3-{6-[(S)-3-(2,6-dichloro-4-methyl-phenoxy)-pyrrolidin-1-yl]-pyridin-3-yl}-propionamide]"

row,Compound,IC50 [nM]
1,"Mixture of (R)-2-aminomethyl-3-{2-[(R)-3-(3-chloro-2,6-difluoro-phenoxy)-pyrrolidin-1-yl]-thiazol-5-yl}-N-cyclopropyl-N-(2,3-dichloro-benzyl)-propionamide and (S)-2-aminomethyl-3-{2-[(R)-3-(3-chloro-2,6-difluoro-phenoxy)-pyrrolidin-1-yl]-thiazol-5-yl}-N-cyclopropyl-N-(2,3-dichloro-benzyl)-propionamide [Example 14]",45
2,"Mixture of (R)-2-aminomethyl-N-cyclopropyl-N-(2,3-dichloro-benzyl)-3-{2-[(R)-3-(2,6-dichloro-3,4-dimethyl-phenoxy)-pyrrolidin-1-yl]-thiazol-5-yl}-propionamide and (S)-2-aminomethyl-N-cyclopropyl-N-(2,3-dichloro-benzyl)-3-{2-[(R)-3-(2,6-dichloro-3,4-dimethyl-phenoxy)-pyrrolidin-1-yl]-thiazol-5-yl}-propionamide [Example 11]",17
